Results: PubChem BioAssay (NCI)
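Dose response: 5 concentrations. Exposure: 48 h. Format: 96-well plates. Endpoint: linear interpolation; highest concentration if not reached. Abbreviation: GI50, concentration required for 50% inhibition of growth. Definition used: TGI = concentration required for complete inhibition of growth.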

What was measured:
Experiment in all cases: NCI tumour cell line growth inhibition, 48 h
NCI-H23 lung = test system: NCI-H23 lung
NCI-H460 lung = test system: NCI-H460 lung
NCI-H522 lung = test system: NCI-H522 lung
NCI/ADR-RES ovarian = test system: NCI/ADR-RES ovarian
OVCAR-3 ovarian = test system: OVCAR-3 ovarian
OVCAR-4 ovarian = test system: OVCAR-4 ovarian
OVCAR-5 ovarian = test system: OVCAR-5 ovarian
OVCAR-8 ovarian = test system: OVCAR-8 ovarian
PC-3 prostate = test system: PC-3 prostate
RPMI-8226 leukemia = test system: RPMI-8226 leukemia
RXF 393 renal = test system: RXF 393 renal
SF-268 CNS = test system: SF-268 CNS
SF-295 CNS = test system: SF-295 CNS
SF-539 CNS = test system: SF-539 CNS
SK-MEL-2 melanoma = test system: SK-MEL-2 melanoma
SK-MEL-28 melanoma = test system: SK-MEL-28 melanoma
SK-MEL-5 melanoma = test system: SK-MEL-5 melanoma
SK-OV-3 ovarian = test system: SK-OV-3 ovarian
SN12C renal = test system: SN12C renal
SNB-19 CNS = test system: SNB-19 CNS
SNB-75 CNS = test system: SNB-75 CNS
SR leukemia = test system: SR leukemia
SW-620 colon = test system: SW-620 colon
T-47D breast = test system: T-47D breast
TK-10 renal = test system: TK-10 renal
U251 CNS = test system: U251 CNS
UACC-257 melanoma = test system: UACC-257 melanoma
UACC-62 melanoma = test system: UACC-62 melanoma
UO-31 renal = test system: UO-31 renal

**Q.** For `CCN(Cc1ccncc1)c1ccc(CO)c(Cl)c1`, which GI50 (NCI-H23 lung) is on record?
**A.** > 100 µM

**Q.** What about the TGI (NCI-H23 lung) of the same compound?
**A.** > 100 µM

**Q.** And the GI50 (NCI-H460 lung)?
**A.** 0.638 µM

**Q.** What about the TGI (NCI-H460 lung) of the same compound?
**A.** > 100 µM

**Q.** And the GI50 (NCI-H522 lung)?
**A.** > 100 µM

**Q.** And the TGI (NCI-H522 lung)?
**A.** > 100 µM

**Q.** And the GI50 (NCI/ADR-RES ovarian)?
**A.** 81.1 µM

**Q.** And the TGI (NCI/ADR-RES ovarian)?
**A.** > 100 µM

**Q.** And the GI50 (OVCAR-3 ovarian)?
**A.** 1.14 µM

**Q.** What about the TGI (OVCAR-3 ovarian) of the same compound?
**A.** 4.67 µM

**Q.** What about the GI50 (OVCAR-4 ovarian) of the same compound?
**A.** 0.548 µM

**Q.** What about the TGI (OVCAR-4 ovarian) of the same compound?
**A.** 6.27 µM

**Q.** And the GI50 (OVCAR-5 ovarian)?
**A.** 0.152 µM

**Q.** And the TGI (OVCAR-5 ovarian)?
**A.** 0.584 µM

**Q.** What about the GI50 (OVCAR-8 ovarian) of the same compound?
**A.** 96.9 µM

**Q.** And the TGI (OVCAR-8 ovarian)?
**A.** > 100 µM

**Q.** And the GI50 (PC-3 prostate)?
**A.** > 100 µM

**Q.** And the TGI (PC-3 prostate)?
**A.** > 100 µM

**Q.** What about the GI50 (RPMI-8226 leukemia) of the same compound?
**A.** 15.6 µM

**Q.** And the TGI (RPMI-8226 leukemia)?
**A.** > 100 µM

**Q.** And the TGI (RXF 393 renal)?
**A.** > 100 µM

**Q.** What about the GI50 (SF-268 CNS) of the same compound?
**A.** > 100 µM

**Q.** And the TGI (SF-268 CNS)?
**A.** > 100 µM

**Q.** What about the GI50 (SF-295 CNS) of the same compound?
**A.** 0.951 µM

**Q.** And the TGI (SF-295 CNS)?
**A.** > 56.3 µM

**Q.** What about the GI50 (SF-539 CNS) of the same compound?
**A.** > 100 µM

**Q.** And the TGI (SF-539 CNS)?
**A.** > 100 µM

**Q.** And the GI50 (SK-MEL-2 melanoma)?
**A.** > 24.7 µM

**Q.** What about the TGI (SK-MEL-2 melanoma) of the same compound?
**A.** > 100 µM

**Q.** What about the GI50 (SK-MEL-28 melanoma) of the same compound?
**A.** > 100 µM

**Q.** What about the TGI (SK-MEL-28 melanoma) of the same compound?
**A.** > 100 µM

**Q.** And the GI50 (SK-MEL-5 melanoma)?
**A.** 23.8 µM

**Q.** And the TGI (SK-MEL-5 melanoma)?
**A.** > 100 µM

**Q.** What about the GI50 (SK-OV-3 ovarian) of the same compound?
**A.** > 76.1 µM

**Q.** And the TGI (SK-OV-3 ovarian)?
**A.** > 100 µM

**Q.** And the GI50 (SN12C renal)?
**A.** > 100 µM

**Q.** What about the TGI (SN12C renal) of the same compound?
**A.** > 100 µM

**Q.** And the GI50 (SNB-19 CNS)?
**A.** > 100 µM

**Q.** What about the TGI (SNB-19 CNS) of the same compound?
**A.** > 100 µM

**Q.** And the GI50 (SNB-75 CNS)?
**A.** > 77.8 µM

**Q.** What about the TGI (SNB-75 CNS) of the same compound?
**A.** > 100 µM

**Q.** And the GI50 (SR leukemia)?
**A.** > 100 µM

**Q.** What about the TGI (SR leukemia) of the same compound?
**A.** > 100 µM

**Q.** What about the GI50 (SW-620 colon) of the same compound?
**A.** 3.74 µM

**Q.** What about the TGI (SW-620 colon) of the same compound?
**A.** > 100 µM

**Q.** What about the GI50 (T-47D breast) of the same compound?
**A.** 0.367 µM

**Q.** What about the TGI (T-47D breast) of the same compound?
**A.** 2.84 µM

**Q.** And the GI50 (TK-10 renal)?
**A.** 0.0945 µM

**Q.** What about the TGI (TK-10 renal) of the same compound?
**A.** 0.34 µM

**Q.** And the GI50 (U251 CNS)?
**A.** 4.22 µM

**Q.** And the TGI (U251 CNS)?
**A.** > 100 µM

**Q.** And the GI50 (UACC-257 melanoma)?
**A.** 0.237 µM

**Q.** And the TGI (UACC-257 melanoma)?
**A.** 0.738 µM

**Q.** And the GI50 (UACC-62 melanoma)?
**A.** 0.333 µM

**Q.** And the TGI (UACC-62 melanoma)?
**A.** 2.17 µM

**Q.** What about the GI50 (UO-31 renal) of the same compound?
**A.** 24.9 µM

**Q.** And the TGI (UO-31 renal)?
**A.** > 100 µM
